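Where inhibition never reached the appropriate level, the endpoint shown equals the highest concentration tested. Otherwise, values were interpolated linearly from a five-concentration, 48-hour dose response in 96-well plates. GI50: concentration for 50% inhibition of growth.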 The source made the active and inactive calls. Rule as the data show it: active = GI50 up to about 1.1 µM and inactive = higher.
Key:
Assay in all cases: NCI tumour cell line growth inhibition, 48 h
786-0 = test system: 786-0
A498 = test system: A498
A549 = test system: A549
ACHN = test system: ACHN
CAKI-1 = test system: CAKI-1
CCRF-CEM = test system: CCRF-CEM
COLO 205 = test system: COLO 205
DU-145 = test system: DU-145
EKVX = test system: EKVX
HCC 2998 = test system: HCC 2998
HCT-116 = test system: HCT-116
HCT-15 = test system: HCT-15
HL-60 = test system: HL-60
HOP-62 = test system: HOP-62
HT-29 = test system: HT-29
Hs-578T = test system: Hs-578T
IGROV-1 = test system: IGROV-1
K562 = test system: K562
KM12 = test system: KM12
LOX IMVI = test system: LOX IMVI
M14 = test system: M14
MCF7 = test system: MCF7
MDA-MB-231 = test system: MDA-MB-231
MDA-MB-435 = test system: MDA-MB-435
MDA-N = test system: MDA-N
MOLT-4 = test system: MOLT-4
Malme-3M = test system: Malme-3M
NCI-H226 = test system: NCI-H226
NCI-H23 = test system: NCI-H23
NCI-H460 = test system: NCI-H460
NCI-H522 = test system: NCI-H522
NCI/ADR-RES = test system: NCI/ADR-RES
OVCAR-3 = test system: OVCAR-3
OVCAR-4 = test system: OVCAR-4
OVCAR-5 = test system: OVCAR-5
OVCAR-8 = test system: OVCAR-8
PC-3 = test system: PC-3
RPMI-8226 = test system: RPMI-8226
RXF 393 = test system: RXF 393
SF-268 = test system: SF-268
SF-295 = test system: SF-295
SF-539 = test system: SF-539
SK-MEL-28 = test system: SK-MEL-28
SK-MEL-2 = test system: SK-MEL-2
SK-MEL-5 = test system: SK-MEL-5
SK-OV-3 = test system: SK-OV-3
SN12C = test system: SN12C
SNB-19 = test system: SNB-19
SR = test system: SR
SW-620 = test system: SW-620
T47D = test system: T47D
TK-10 = test system: TK-10
U-251 = test system: U-251
UACC-257 = test system: UACC-257
UACC-62 = test system: UACC-62
UO-31 = test system: UO-31
HOP-92 = test system: HOP-92
SNB-75 = test system: SNB-75

COc1cc(OC)c2nc(C)c3c(c2c1)SCC3
GI50 (786-0): 19.5 µM (inactive)
GI50 (A498): 18.6 µM (inactive)
GI50 (A549): 21.1 µM (inactive)
GI50 (ACHN): 18.7 µM (inactive)
GI50 (CAKI-1): 16.1 µM (inactive)
GI50 (CCRF-CEM): > 100 µM (inactive)
GI50 (COLO 205): > 100 µM (inactive)
GI50 (DU-145): 44.8 µM (inactive)
GI50 (EKVX): 10.1 µM (inactive)
GI50 (HCC 2998): 46.9 µM (inactive)
GI50 (HCT-116): 22.2 µM (inactive)
GI50 (HCT-15): 42.3 µM
GI50 (HL-60): 78 µM (inactive)
GI50 (HOP-62): 18.2 µM (inactive)
GI50 (HT-29): 40.6 µM (inactive)
GI50 (Hs-578T): 19.8 µM (inactive)
GI50 (IGROV-1): 17.2 µM (inactive)
GI50 (K562): > 100 µM (inactive)
GI50 (KM12): 68.5 µM (inactive)
GI50 (LOX IMVI): 32.7 µM (inactive)
GI50 (M14): 41.4 µM (inactive)
GI50 (MCF7): 15.6 µM (inactive)
GI50 (MDA-MB-231): 21.1 µM (inactive)
GI50 (MDA-MB-435): 25.5 µM (inactive)
GI50 (MDA-N): 28.8 µM (inactive)
GI50 (MOLT-4): > 100 µM (inactive)
GI50 (Malme-3M): 24.7 µM (inactive)
GI50 (NCI-H226): 20.4 µM (inactive)
GI50 (NCI-H23): 31.9 µM (inactive)
GI50 (NCI-H460): 23.7 µM (inactive)
GI50 (NCI-H522): 36.1 µM (inactive)
GI50 (NCI/ADR-RES): 27.4 µM (inactive)
GI50 (OVCAR-3): 19.2 µM (inactive)
GI50 (OVCAR-4): 18.8 µM (inactive)
GI50 (OVCAR-5): 29.6 µM (inactive)
GI50 (OVCAR-8): 19 µM (inactive)
GI50 (PC-3): 20 µM (inactive)
GI50 (RPMI-8226): 25.9 µM (inactive)
GI50 (RXF 393): 24.3 µM (inactive)
GI50 (SF-268): 19.4 µM (inactive)
GI50 (SF-295): 27.5 µM (inactive)
GI50 (SF-539): 18.5 µM (inactive)
GI50 (SK-MEL-28): 31 µM (inactive)
GI50 (SK-MEL-2): 27.7 µM (inactive)
GI50 (SK-MEL-5): 21.3 µM (inactive)
GI50 (SK-OV-3): 27.7 µM (inactive)
GI50 (SN12C): 25.5 µM (inactive)
GI50 (SNB-19): 15.6 µM (inactive)
GI50 (SR): 20.5 µM (inactive)
GI50 (SW-620): 27 µM (inactive)
GI50 (T47D): 26.3 µM (inactive)
GI50 (TK-10): 19.5 µM (inactive)
GI50 (U-251): 29.8 µM (inactive)
GI50 (UACC-257): 31.7 µM (inactive)
GI50 (UACC-62): 22.9 µM (inactive)
GI50 (UO-31): 21.9 µM (inactive)

Cc1ccc(S(=O)(=O)N2CCCSCC2)cc1
GI50 (A498): > 100 µM (inactive)
GI50 (A549): > 100 µM (inactive)
GI50 (ACHN): > 100 µM (inactive)
GI50 (CCRF-CEM): > 100 µM (inactive)
GI50 (COLO 205): > 100 µM (inactive)
GI50 (DU-145): > 100 µM (inactive)
GI50 (HCC 2998): > 100 µM (inactive)
GI50 (HCT-116): > 100 µM (inactive)
GI50 (HCT-15): > 100 µM
GI50 (HOP-92): > 100 µM (inactive)
GI50 (HT-29): > 100 µM (inactive)
GI50 (Hs-578T): 72.4 µM (inactive)
GI50 (K562): > 100 µM (inactive)
GI50 (KM12): > 100 µM (inactive)
GI50 (LOX IMVI): > 100 µM (inactive)
GI50 (MCF7): > 100 µM (inactive)
GI50 (MDA-MB-231): > 100 µM (inactive)
GI50 (MDA-MB-435): 95.7 µM (inactive)
GI50 (MDA-N): > 100 µM (inactive)
GI50 (MOLT-4): > 100 µM (inactive)
GI50 (NCI-H226): > 100 µM (inactive)
GI50 (NCI-H23): > 100 µM (inactive)
GI50 (NCI-H460): > 100 µM (inactive)
GI50 (NCI-H522): > 100 µM (inactive)
GI50 (NCI/ADR-RES): > 100 µM (inactive)
GI50 (OVCAR-4): > 100 µM (inactive)
GI50 (OVCAR-8): > 100 µM (inactive)
GI50 (PC-3): > 100 µM (inactive)
GI50 (RXF 393): 62.7 µM (inactive)
GI50 (SF-268): > 100 µM (inactive)
GI50 (SF-295): > 100 µM (inactive)
GI50 (SK-MEL-28): > 100 µM (inactive)
GI50 (SK-MEL-5): > 100 µM (inactive)
GI50 (SK-OV-3): > 100 µM (inactive)
GI50 (SN12C): > 100 µM (inactive)
GI50 (SNB-19): > 100 µM (inactive)
GI50 (SNB-75): 61.7 µM (inactive)
GI50 (SR): > 100 µM (inactive)
GI50 (SW-620): > 100 µM (inactive)
GI50 (T47D): > 100 µM (inactive)
GI50 (TK-10): > 100 µM (inactive)
GI50 (U-251): > 100 µM (inactive)
GI50 (UACC-257): > 100 µM (inactive)
GI50 (UO-31): 35.2 µM (inactive)

CC(=O)/N=C1/N(/C=C2\C(=O)Oc3ccccc3C2=O)C(=O)/C(=C/c2ccc(NC(C)=O)cc2)N1C
GI50 (786-0): > 100 µM (inactive)
GI50 (A498): > 100 µM (inactive)
GI50 (A549): > 100 µM (inactive)
GI50 (ACHN): > 100 µM (inactive)
GI50 (CAKI-1): > 100 µM (inactive)
GI50 (CCRF-CEM): > 100 µM (inactive)
GI50 (COLO 205): > 100 µM (inactive)
GI50 (DU-145): > 100 µM (inactive)
GI50 (EKVX): > 100 µM (inactive)
GI50 (HCC 2998): > 100 µM (inactive)
GI50 (HCT-116): > 100 µM (inactive)
GI50 (HCT-15): > 100 µM
GI50 (HL-60): > 100 µM (inactive)
GI50 (HOP-62): > 100 µM (inactive)
GI50 (HT-29): > 100 µM (inactive)
GI50 (Hs-578T): 44.4 µM (inactive)
GI50 (IGROV-1): > 100 µM (inactive)
GI50 (K562): > 100 µM (inactive)
GI50 (KM12): > 100 µM (inactive)
GI50 (LOX IMVI): > 100 µM (inactive)
GI50 (M14): > 100 µM (inactive)
GI50 (MCF7): > 100 µM (inactive)
GI50 (MDA-MB-231): > 100 µM (inactive)
GI50 (MDA-MB-435): > 100 µM (inactive)
GI50 (MDA-N): > 100 µM (inactive)
GI50 (MOLT-4): > 100 µM (inactive)
GI50 (Malme-3M): > 100 µM (inactive)
GI50 (NCI-H226): > 100 µM (inactive)
GI50 (NCI-H23): > 100 µM (inactive)
GI50 (NCI-H460): > 100 µM (inactive)
GI50 (NCI-H522): 47.9 µM (inactive)
GI50 (NCI/ADR-RES): > 100 µM (inactive)
GI50 (OVCAR-3): 76 µM (inactive)
GI50 (OVCAR-4): > 100 µM (inactive)
GI50 (OVCAR-5): > 100 µM (inactive)
GI50 (OVCAR-8): > 100 µM (inactive)
GI50 (PC-3): > 100 µM (inactive)
GI50 (RPMI-8226): > 100 µM (inactive)
GI50 (RXF 393): > 100 µM (inactive)
GI50 (SF-268): > 100 µM (inactive)
GI50 (SF-295): > 100 µM (inactive)
GI50 (SF-539): > 100 µM (inactive)
GI50 (SK-MEL-28): > 100 µM (inactive)
GI50 (SK-MEL-2): > 100 µM (inactive)
GI50 (SK-MEL-5): > 100 µM (inactive)
GI50 (SK-OV-3): > 100 µM (inactive)
GI50 (SN12C): > 100 µM (inactive)
GI50 (SNB-75): 84.9 µM (inactive)
GI50 (SR): > 100 µM (inactive)
GI50 (SW-620): > 100 µM (inactive)
GI50 (T47D): > 100 µM (inactive)
GI50 (U-251): > 100 µM (inactive)
GI50 (UACC-257): > 100 µM (inactive)
GI50 (UACC-62): > 100 µM (inactive)
